Source: patent US5461057A, “Hydro-ethano-indeno-pyridines” (priority 1994, dated 1995)
Where two headings read alike, the source gives them in different places.

Key:
[1] = system: LOX human melanoma cell adhesion to murine laminin; test: LOX cell adhesion to laminin; type: cell-based; details: read-out: Laminin IC50
Experimental: (§1) Adhesion assays were run essentially as described previously (Pai et al., J. Biomed. Res. 2: 53, 1992). 96-well plates were coated with human fibronectin (140 ng/well), human vitronectin (75 ng/well), human collagen I (100 ng/well), human collagen IV (100 ng/well), human fibrinogen (1 μg/well), murine laminin (600 ng/well), or polylysine, and incubated overnight in a humidified 37° C. incubator. Excess fibronectin or other substrate was then removed and 0.2 ml of 2 mg/ml bovine serum albumin (BSA)in Dulbecco's phosphate-buffered saline (DPBS) was added to each well, incubated for 2 hours at 37° C., and removed. LOX human melanoma cells, M27 murine lung carcinoma cells or B16F10 mouse melanoma cells were detached from tissue culture flasks with RPMI medium containing 0.2M urea and 10 mM EDTA, and 0.18 ml of cells were added to each well to a final cell concentration of 1×10^5 cells/well. For inhibition studies 20 μl of 10× compound was added to the wells prior to cell addition. Cells were allowed to adhere for 1 hour at 37° C. The wells were then gently washed twice with 0.2 ml DPBS. The fluorescent dye calcein AM (Molecular Probes, Eugene Oreg.) in DPBS (0.1 ml of 1 μM) was added to each well, and the plates were incubated for 1 hour at room temperature. Adherent cells were quantitated by reading the fluorescence on a Cytofluor 2300 fluorescent plate reader (Millipore) at 485 nm excitation and 530 nm emission.

[2] = system: LOX human melanoma cell adhesion to human collagen I; test: LOX cell adhesion to collagen I; type: cell-based; details: read-out: Collagen I IC50
Experimental: as §1

[3] = Calcein cytotoxicity assay; type: cell-based; details: human, lox melanoma cells, calcein AM assay; for CC50 at 2 h: read-out: 2 Hr Tox LD50
[4] = system: LOX human melanoma cell adhesion to polylysine; test: LOX melanoma cell adhesion to polylysine; type: cell-based; details: read-out: Poly Lys IC50
[5] = system: LOX human melanoma cell adhesion to human vitronectin; test: LOX cell adhesion to vitronectin; type: cell-based; details: read-out: Vitronectin IC50
Experimental: as §1

[6] = system: LOX human melanoma cell adhesion to human collagen IV; test: LOX cell adhesion to collagen IV; type: cell-based; details: read-out: Collagen IV IC50
Experimental: as §1

[7] = system: histamine-induced dyspnea; test: Bronchodilator (in vivo) Guinea Pig Dyspnea; details: 100 mg/kg, oral, one hour before histamine challenge
How it was run: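 Fasted, unanesthetized guinea pigs (250-350 g) received the test drug orally one hour before exposure to an aerosolized 0.1% histamine solution. Onset of dyspnea was recorded, and data were expressed as number tested over number survived.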

[8] = system: LOX human melanoma cell adhesion to human fibronectin; test: LOX melanoma cell adhesion to fibronectin; type: cell-based; details: Homo sapiens, LOX; for inhibition at 10 µM: read-out: % Inhibition at 10 μM; for inhibition at 50 µM: read-out: % Inhibition at 50 μM
How it was run: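 Compound added to fibronectin-coated (140 ng/well), BSA-blocked wells before LOX cells (1×10^5/well, detached with urea/EDTA). Cells adhered 1 h at 37 °C, then washed. Adherent cells quantified by calcein AM fluorescence (485/530 nm); IC50 for adhesion inhibition.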

[9] = system: LOX human melanoma cell adhesion to human fibrinogen; test: LOX cell adhesion to fibrinogen; type: cell-based; details: read-out: Fibrinogen IC50
Experimental: as §1

[10] = system: B16-F10 mouse melanoma cell adhesion to fibronectin; test: B16-F10 melanoma cell adhesion to fibronectin; type: cell-based; details: read-out: B16 FN IC50
Experimental: as §1

[11] = system: LOX human melanoma cells; test: Tumor cell invasion through collagen/fibronectin coated membranes; type: cell-based
Experimental: […] Cell Invasion Through Collagen/Fibronectin Coated Membranes:
Nucleopore polycarbonate membranes (8 μm pore size) were coated with 0.05 ml of type I collagen and allowed to dry overnight. 210 μl of serum free DMEM with BSA was added to each Boyden chamber. Membranes were placed in chambers and upper chambers were screwed on. Human fibronectin (50 μl of 0.1 mg/ml solution in DMEM with BSA) was added to the top chamber and allowed to sit on membranes for 1 hour at room temperature. Compounds (50 μl) at 10× concentration in DMEM with BSA were added to the chambers. LOX melanoma cells were detached from flasks with trypsin/EDTA solution and resuspended in RPMI with 10% fetal bovine serum. Cells were centrifuged, washed 2× with DMEM with BSA, and resuspended in 10 ml of DMEM with BSA. LOX cells (0.45 ml of 7.8×10^5 cells per ml) were added to each chamber and chambers were incubated for 5 hours at 37° C. The medium was removed from the upper chamber by aspiration, the top chamber was unscrewed, and the membrane was removed. The membrane was inverted, pinned to a dissecting tray, and fixed with Diff Quik fixative for 3 minutes The fixative was then removed and Diff Quik Stain was added for 2 minutes. The stain was decanted and membranes were rinsed with distilled water. Membranes were inverted onto glass slides, and non-invading cells were wiped away with a cotton swab. Permount was added to the slide and the membrane was covered with a cover slip. The number of cells that invaded was quantitated on a Nikon TMS microscope with C-2 Image Analyzer software (Olympus Corp.).
The greater potency of the compounds in this assay (IC50 for compound B<400 nM) may result from the longer duration of this assay (5 hours) relative to the fibronectin adhesion assay (1 hour).

[12] = system: M27 murine lung carcinoma cell adhesion to fibronectin; test: M27 lung carcinoma cell adhesion to fibronectin; type: cell-based; details: Mus musculus; read-out: M27 FN IC50
Experimental: as §1

[13] = molecular target: T1, ICAM-1 (Homo sapiens, UniProt P05362); test: HL-60 cell adhesion to recombinant soluble ICAM-1; type: cell-based; details: HL-60 cells
T1 construct: recombinant soluble ICAM-1 (2 μg/well)
Experimental: For measurement of cell adhesion to ICAM-1, HL-60 human leukemia cells were induced to differentiate in the presence of DMSO for 6 days. Adhesion of DMSO-differentiated HL-60 cells to recombinant soluble ICAM-1 (2 μg/well) was measured as described above for LOX cell adhesion, except that the adhesion was allowed to proceed for 30 minutes, rather than 1 hour, at 37° C.
ICAM-1 is a cell surface adhesion molecule that participates in cell-cell adhesion interactions, rather than cell-matrix adhesion interactions.

[14] = molecular target: ELAM-1 (Homo sapiens, UniProt P16581); test: cell-based
Experimental: Cell adhesion to ELAM-1 was measured essentially as described previously (Pal et al., J. Biomed. Res. 2: 53, 1992). Undifferentiated HL-60 leukemia cells were prelabelled for 30 minutes with 1 μM calcein AM in DPBS without calcium or magnesium, and the cells were washed twice with the same medium before addition to 96-well plates containing monolayers of mouse L cells (5×10^4 cells/well) transfected with cDNA for the adhesion molecule ELAM-1. Adhesion was allowed to proceed for 30 minutes at room temperature before washing and quantitation of the remaining fluorescent HL-60 cells as described above.
ELAM-1 (E-selectin) is a member of the selectin class of adhesion molecules.

[15] = MTT cytotoxicity assay; type: cell-based; details: human, lox melanoma cells, read-out: MTT 1 Hr LD50
Experimental: LOX human melanoma cells, in RPMI medium with 2 mg/ml BSA and 25 mM HEPES, pH 7.4, were seeded at 4×10^4 cells/well in 96-well microtiter plates and grown overnight in a humidified 37° C. incubator. On the following day, the medium was aspirated and wells were washed once with 0.1 ml of DPBS. Compounds (0.1 ml) in DPBS were added to wells in quadruplicate at appropriate concentrations. The cells were then incubated with test compound for 1 hour at 37° C. Wells were aspirated and washed 2× with 0.1 ml DPBS. MTT [3-(4,5-Dimethylthiazol-2-yl)-2,5-diphenyltetrazolium bromide] (0.1 ml of 1 mg/ml solution in PBS from Sigma Chemical Co.) was added to each well and incubated for 2 hour at 37° C. MTT was aspirated and 0.1 ml of 50% N,N-dimethylformamide with 20% sodium dodecyl sulfate was added to each well. Plates were shaken for 10 minutes on a Titer-Plate shaker (Labline) at room temperature. Optical density was read at 570 nm with a plate-reading spectrophotometer (Dynatech MR5000).

T1 sequence (P05362 28-480 limits assumed): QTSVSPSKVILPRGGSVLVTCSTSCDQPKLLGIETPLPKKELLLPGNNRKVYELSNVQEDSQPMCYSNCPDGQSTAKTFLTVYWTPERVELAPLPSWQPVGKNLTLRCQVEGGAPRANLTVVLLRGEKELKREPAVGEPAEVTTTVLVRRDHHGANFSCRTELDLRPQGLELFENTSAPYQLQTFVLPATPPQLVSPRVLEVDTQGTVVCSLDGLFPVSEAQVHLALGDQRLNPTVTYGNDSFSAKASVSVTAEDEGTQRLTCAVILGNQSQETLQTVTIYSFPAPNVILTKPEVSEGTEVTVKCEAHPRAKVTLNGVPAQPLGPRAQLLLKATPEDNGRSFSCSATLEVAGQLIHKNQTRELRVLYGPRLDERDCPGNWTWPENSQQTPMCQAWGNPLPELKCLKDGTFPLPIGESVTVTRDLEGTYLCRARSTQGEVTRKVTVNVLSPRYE
ELAM-1, sequence (P16581 22-610): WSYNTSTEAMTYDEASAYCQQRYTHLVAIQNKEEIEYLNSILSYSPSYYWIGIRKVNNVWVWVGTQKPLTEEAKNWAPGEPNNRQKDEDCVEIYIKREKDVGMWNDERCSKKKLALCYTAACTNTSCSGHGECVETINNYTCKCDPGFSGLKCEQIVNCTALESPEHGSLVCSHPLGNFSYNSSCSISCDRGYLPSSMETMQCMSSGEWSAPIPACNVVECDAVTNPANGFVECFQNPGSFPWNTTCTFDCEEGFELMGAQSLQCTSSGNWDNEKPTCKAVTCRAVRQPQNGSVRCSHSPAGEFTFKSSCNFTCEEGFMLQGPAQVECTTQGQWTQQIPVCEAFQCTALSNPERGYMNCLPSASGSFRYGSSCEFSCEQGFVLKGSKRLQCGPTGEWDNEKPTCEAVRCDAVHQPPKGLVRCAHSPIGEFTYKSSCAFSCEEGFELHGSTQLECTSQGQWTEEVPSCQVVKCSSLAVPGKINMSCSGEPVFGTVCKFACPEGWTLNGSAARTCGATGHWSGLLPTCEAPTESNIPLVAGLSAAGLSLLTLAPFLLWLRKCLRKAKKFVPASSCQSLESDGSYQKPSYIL

## CN1C2CCC1C1C(=C(c3ccccc3C(F)(F)F)c3ccccc31)C2 (centres unmarked) [Compound S]
[1]
  IC50: 7.7 µM
[2]
  IC50: 11.6 µM
[3]
  CC50 at 2 h: > 250 µM
[4]
  IC50: > 250 µM
[5]
  IC50: 20.2 µM
[6]
  IC50: 19.2 µM
[7]
  DYSP survivors: 0/3
[8]; 10 μM
  inhibition at 10 µM: -4.4%
[8]; 50 μM
  inhibition at 50 µM: 90.2%
[8]; Table 4, 1 hour adhesion, read-out: LOX FN IC50
  IC50: 17.7 µM
[8]; Table 5, read-out: Fibronectin IC50
  IC50: 17.7 µM
[9]
  IC50: 15.7 µM

## CSc1ccc(C2=C3CC4CCC(C3c3ccccc32)N4C)cc1 (centres unmarked) [F, 1SR:3RS:9b-1,3 Ethano-2-methy-5-(p-methylmercaptophenyl)-1,3,4,9b-tetrahydro-2H-indeno-(2h-indeno) [1,2-c]pyridine]
[10]
  IC50: 24.2 µM
[3]
  CC50 at 2 h: 43.3 µM
[3]; 6 hours, read-out: 6 Hr Tox LD50
  CC50 at 6 h: 19.9 µM
[11]; Homo sapiens, 5 hours, read-out: Invasion IC50
  IC50: 0.52 µM
[11]; fibronectin/collagen matrix
  inhibition of in vitro tumor cell invasion: inhibit in vitro tumor cell invasion through a fibronectin/collagen matrix
[4]
  IC50: 24.4 µM
[7]; Cavia porcellus, 1 h, read-out: DYSP survivors (converted)
  responders at 100 mg/kg: 0%
[8]; 1 h, read-out: LOX FN IC50
  IC50: 5.1 µM
[8]
  inhibition at 10 µM: 49.4%
  inhibition at 50 µM: 102%
[12]
  IC50: 8.7 µM
[13]
  IC50: 16.8 µM
[14]
  IC50: > 50 µM
[15]
  CC50 at 1 h: 51.7 µM
